From patent publication US20060121102A1, “Transdermal systems for the delivery of estrogens and progestins” (priority 2004, published 2006)

Experiment: In vitro skin permeation (flux), modified Franz diffusion cells
Format: in vitro ADME, human
Settings: as permeation enhancer, compared with other enhancers such as lauryl lactate
Experimental: In vitro skin permeation studies were conducted using modified Franz diffusion cells to determine the delivery of estrogens and progestins from various drug polymer matrices. The release liner was peeled off of the drug matrix layer. The drug matrix layer was then gently pressed onto the stratum corneum of heat separated epidermis from human cadaver skin. This skin membrane with the backing and drug matrix affixed thereto was then mounted between the two half-cells and fastened with a clamp. The receiver compartment was filled with 1% hydroxylpropylcyclodextrin in normal saline solution with 0.01% sodium azide. The temperature was maintained at 32° C. Samples were taken at preset intervals and assayed by HPLC. The flux was calculated from the slope of the cumulative amounts of the drug in the receiver compartment versus time.

enhancing the transdermal flux of norelgestromin: particularly effective
Compound: CC(O)C(=O)O (stereo not shown) [lactic acid]
